Results on 2 compounds are retold here after US9491962B2, “Use of chicoric acid and derivatives for regulating skin pigmentation” (Nestec S.A., priority 2010, dated 2016).

In data set [1] the test system is HDF. Put plainly: Highest non cytotoxic concentration on HDF. It counts as cell-based. As to conditions: mM. From the text: (§1) We have tested two chicory extracts MS-55 (concentré MS-55 LEROUX) and MS-70 (pâte MS-70 LEROUX) and Chicoric acid.
Data set [2] relates to HPEK. Description: Highest non cytotoxic concentration on HPEK. The settings on record: mM. It counts as cell-based, human. How it is done:
as §1
The potential beneficial effect of the Extracts of Example 1 towards skin barrier function and skin hydration was evaluated by using 2D culture of human primary epidermal keratinocytes and we assessed the synthesis of filaggrin

Data set [3] has as its system B16 murine melanocytes. Put plainly: Production of melanin by B16 murine melanocyte cell line. The class given is cell-based. The settings on record: for melanin production (result in words): B16 melanocytes, 72 hours, Kojic acid at 400 μg/mL. On the procedure: In order to evaluate the potential beneficial effect of ingredients towards skin de- or pro-pigmentation we used 2D culture of murine melanocytes (B16) and we performed 2 tests: 1-assessment of melanin production and 2-assessment of tyrosinase production. B16 cells were cultured in DMEM 1 g/L glucose without phenol red supplemented with 10% foetal calf serum, in a humidified chamber at 37° C. and containing 5% CO2. Cells were incubated with the selected ingredients or the test references (Kojic acid at 400 μg/mL) for 72 hours, in the presence or absence of NDP-MSH an analog of MSH. The total quantity of melanin (extracellular and intracellular) was evaluated by measurement of the optical density at 405 nm of each sample against melanin standards in presence or in absence of NDP-MSH.

Data set [4] has as its system filaggrin. Description: Synthesis of filaggrin by human epidermal keratinocytes (immunolabeling). The settings on record: human primary epidermal keratinocytes, 144 hours. It counts as cell-based. How it is done: The potential beneficial effect of the Extracts of Example 1 towards skin barrier function and skin hydration was evaluated by using 2D culture of human primary epidermal keratinocytes and we assessed the synthesis of filaggrin Human epidermal keratinocytes were cultured in control keratinocytes-SFM medium, in a humidified chamber at 37° C. and containing 5% CO2. Cells were incubated with the selected ingredients or the test references (CaCl2 at 1.5 mM) for 144 hours. The production of filaggrin by was evaluated by immunolabeling.

With `O=C(/C=C/c1ccc(O)c(O)c1)O[C@@H](C(=O)O)[C@@H](OC(=O)/C=C/c1ccc(O)c(O)c1)C(=O)O` [Chicoric acid], in data set [1], the “Highest non cytotoxic conc. on HDF” value is recorded as 0.2 mM. In data set [2], the “Highest non cytotoxic conc. on HPEK” value is listed as 0.2 mM. The “decrease of melanin production” value in data set [3] (B16 melanocytes treated for 72 hours, percentage relative to the control) was determined as 90%. Moreover, the “melanin production (result in words)” value in data set [3] was “decrease in vitro the synthesis of melanin”. Besides, the “filaggrin synthesis (result in words)” value in data set [4] was “increase of filaggrin”.
For the compound `O=c1cc(CO)occ1O` [Kojic acid, reference compound], the “melanin production (result in words)” value in data set [3] is on record as “decrease in melanin production”.
